Earlier results on 2 compounds are cited in article PMC6971042, “Exploring ion-ion preferences through structure-property correlations: amino acid-derived, bis(guanidinium) disiloxane salts” (Scientific Reports, 2020).

Details of this series: method as in PMID 26714187. The conditions noted are these: qualitative.

On to `C[Si](C)(CCCNC(=N)N)O[Si](C)(C)CCCNC(=N)N.O=[N+]([O-])O` [1,3-bis(3-guanidinopropyl)-tetramethyldisiloxane nitrate], for which the water solubility entry is “abnormally low”. For `C[Si](C)(CCCNC(=N)N)O[Si](C)(C)CCCNC(=N)N` [GUA, 1,3-bis(3-guanidinopropyl)-tetramethyldisiloxane dichloride], the water solubility entry is reported as “fully water-miscible”.
